In patent publication US6914045B2, “Glycopeptide antibiotics” (Wyeth Holdings Corporation, priority 2001, dated 2005):
Converted amounts (≈) assume the structure as drawn.

Columns and labels:
Staphylococcus sp. = test: in vitro antibacterial evaluation, MIC by broth dilution; assay type: cell-based; conditions: broth dilution, 18 hours at 35° C.
Outline: (§1)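 Read-out: the lowest concentration at which the test strain fails to grow. Serial dilutions (64-0.06 μg/mL) in Muller-Hinton II […], 5×10^5 CFU/mL inoculum, NCCLS M7-A2 procedure.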

Enterococcus sp. = test: as above; assay type: cell-based; conditions: broth dilution, 18 hours at 35° C.
Outline: as §1

Streptococcus sp. = test: as above; assay type: cell-based; conditions: broth dilution, 18 hours at 35° C.
Outline: as §1

[1] = anatomic pathology (histopathology of heart and kidney) in mice; assay type: in vivo; conditions: CD-1 mice, 20 mg/kg intravenously daily for 9 days, necropsy day 10, microscopic histopathology
Experimental: Samples of tissues from necropsied mice were formalin-fixed, paraffin-embedded, sectioned, stained with hematoxylin and eosin, and examined microscopically. Histopathologic findings were recorded. These findings were subjectively graded on a scale corresponding to slight, mild, moderate, marked and severe as compared to untreated controls.

Escherichia coli = test: in vitro antibacterial evaluation, MIC by broth dilution; assay type: cell-based; conditions: 18 hours at 35° C.
Outline: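 Broth dilution MIC per NCCLS M7-A2 in Mueller-Hinton II medium, inoculum 5×10^5 CFU/mL, antibiotic range 64-0.06 μg/mL. MIC taken as lowest concentration inhibiting growth.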

MIC Staphylococcus aureus (ATCC 29213) (Staphylococcus sp.; strain ATCC 29213): >128 mg/L
MIC Staphylococcus aureus (GC 1131) (Staphylococcus sp.; strain GC 1131): >128 mg/L
MIC Staphylococcus aureus (GC 3051) (Staphylococcus sp.; strain GC 3051): >128 mg/L
MIC Staphylococcus aureus (GC 3053) (Staphylococcus sp.; strain GC 3053): >128 mg/L
MIC Staphylococcus aureus (GC 4541) (Staphylococcus sp.; strain GC 4541): >128 mg/L
MIC Staphylococcus aureus (GC 4542) (Staphylococcus sp.; strain GC 4542): >128 mg/L
MIC Staphylococcus aureus-SMITH (GC 4543) (Staphylococcus sp.; strain GC 4543): >128 mg/L
MIC Staphylococcus aureus (GC 4544) (Staphylococcus sp.; strain GC 4544): >128 mg/L
MIC Staphylococcus aureus (GC 4545) (Staphylococcus sp.; strain GC 4545): >128 mg/L
MIC Coagulase Negative Staphylococcus (GC 4547) (Staphylococcus sp.; strain GC 4547): >128 mg/L
MIC Coagulase Negative Staphylococcus (GC 4548) (Staphylococcus sp.; strain GC 4548): >128 mg/L
MIC Coagulase Negative Staphylococcus (GC 4549) (Staphylococcus sp.; strain GC 4549): >128 mg/L
MIC Coagulase Negative Staphylococcus (GC 4551) (Staphylococcus sp.; strain GC 4551): >128 mg/L
MIC Coagulase Negative Staphylococcus (GC 6257) (Staphylococcus sp.; strain GC 6257): >128 mg/L
MIC Enterococcus avium (GC 4558) (Enterococcus sp.; Enterococcus avium (GC 4558)): 128 mg/L (≈ 96 µM)
MIC Enterococcus faecalis (ATCC 29212) (Enterococcus sp.; Enterococcus faecalis (ATCC 29212)): >128 mg/L
MIC Enterococcus faecalis (GC 4552) (Enterococcus sp.; Enterococcus faecalis (GC 4552)): >128 mg/L
MIC Enterococcus faecalis (GC 4553) (Enterococcus sp.; Enterococcus faecalis (GC 4553)): >128 mg/L
MIC Enterococcus faecalis (GC 4554) (Enterococcus sp.; Enterococcus faecalis (GC 4554)): >128 mg/L
MIC Enterococcus faecalis (GC 6189) (Enterococcus sp.; Enterococcus faecalis (GC 6189)): >128 mg/L
MIC Enterococcus faecium (GC 2243) (Enterococcus sp.; Enterococcus faecium (GC 2243)): >128 mg/L
MIC Enterococcus faecium (GC 4556) (Enterococcus sp.; Enterococcus faecium (GC 4556)): >128 mg/L
MIC Enterococcus faecium (GC 4557) (Enterococcus sp.; Enterococcus faecium (GC 4557)): 128 mg/L (≈ 96 µM)
MIC Enterococcus avium (GC 4558) (Enterococcus sp.): 128 mg/L (≈ 96 µM)
MIC Enterococcus faecalis (ATCC 29212) (Enterococcus sp.): >128 mg/L
MIC Enterococcus faecalis (GC 2242) (Enterococcus sp.): >128 mg/L
MIC Enterococcus faecalis (GC 2691) (Enterococcus sp.): >128 mg/L
MIC Enterococcus faecalis (GC 3059) (Enterococcus sp.): >128 mg/L
MIC Enterococcus faecalis (GC 4552) (Enterococcus sp.): >128 mg/L
MIC Enterococcus faecalis (GC 4553) (Enterococcus sp.): >128 mg/L
MIC Enterococcus faecalis (GC 4554) (Enterococcus sp.): >128 mg/L
MIC Enterococcus faecalis (GC 6189) (Enterococcus sp.): >128 mg/L
MIC Enterococcus faecium (GC 2243) (Enterococcus sp.): >128 mg/L
MIC Enterococcus faecium (GC 4556) (Enterococcus sp.): >128 mg/L
MIC Enterococcus faecium (GC 4557) (Enterococcus sp.): 128 mg/L (≈ 96 µM)
MIC Enterococcus faecalis (GC 2242) (Enterococcus sp.; strain GC 2242): >128 mg/L
MIC Enterococcus faecalis (GC 2691) (Enterococcus sp.; strain GC 2691): >128 mg/L
MIC Enterococcus faecalis (GC 3059) (Enterococcus sp.; strain GC 3059): >128 mg/L
MIC Streptococcus agalactiae (GC 4564) (Streptococcus sp.): 128 mg/L (≈ 96 µM)
MIC Streptococcus pneumoniae (ATCC 6301) (Streptococcus sp.): >128 mg/L
MIC Streptococcus pneumoniae (GC 1894) (Streptococcus sp.): 128 mg/L (≈ 96 µM)
MIC Streptococcus pneumoniae (GC 4565) (Streptococcus sp.): >128 mg/L
MIC Streptococcus pyogenes (GC 4563) (Streptococcus sp.): >128 mg/L
MIC Streptococcus pneumoniae (ATCC 6301) (Streptococcus sp.; strain ATCC 6301): >128 mg/L
MIC Streptococcus pneumoniae (GC 1894) (Streptococcus sp.; strain GC 1894): 128 mg/L (≈ 96 µM)
MIC Streptococcus pyogenes (GC 4563) (Streptococcus sp.; strain GC 4563): >128 mg/L
MIC Streptococcus agalactiae (GC 4564) (Streptococcus sp.; strain GC 4564): 128 mg/L (≈ 96 µM)
MIC Streptococcus pneumoniae (GC 4565) (Streptococcus sp.; strain GC 4565): >128 mg/L
MIC Escherichia coli (ATCC 25922) (Escherichia coli): >128 mg/L
MIC Escherichia coli (GC 4559) (Escherichia coli): >128 mg/L
MIC Escherichia coli (GC 4560) (Escherichia coli): >128 mg/L
Compound: CN=C1N(C)CC(CC2NC(=O)C(Cc3ccc(OC4OC(CO)C(OC5OC(CO)C(O)C(O)C5O)C(O)C4O)cc3)NC(=O)C(C(C)c3ccccc3)NC(=O)CNC(=O)C(CO)NC(=O)C(CC3CN(C)C(=NC)N3C3OC(CO)C(O)C(O)C3O)NC2=O)N1C (stereo not drawn) [Example 74, Cyclo[3-[1,3-dimethyl-2-(methylimino)imidazolidin-4-yl]alanyl-3-[3-hexopyranosyl-1-methyl-2-(methylimino)imidazolidin-4-yl]alanylserylglycyl-β-methylphenylalanyl-O-(4-O-hexopyranosylhexopyranosyl)tyrosyl]]
MIC Staphylococcus haemolyticus (GC 4546) (Staphylococcus sp.; strain GC 4546): >128 mg/L
Anatomical Pathology (Day 10), Heart [1]: 0
Anatomical Pathology (Day 10), Kidney [1]: 0
